Data: the supplement of paper PMC10627819

What was measured:
B. subtilis 168 [1] = experiment: fitness (endpoint OD595 vs no drug) (fraction); higher = more growth
In short: (§1)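 Cultures at OD595 0.01 were dispensed into 384-well plates in TSB, LB Lennox or CY and incubated at 37 °C. Every 30 min for 14 h, OD595 was read and corrected by the first reading. Fitness is the optical density at entry into stationary phase relative to the robust mean of no-drug control wells, capped at 1.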

S. pneumoniae D39V [2] = experiment: as above
In short: as §1

S. aureus DSM 20231 [3] = experiment: as above
In short: as §1

S. aureus Newman [4] = experiment: as above
In short: as §1

B. subtilis 168 [5] = experiment: Bliss interaction score (quartile over a dose matrix) (fitness difference); higher = more antagonism (negative = synergy)
In short: (§2)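 At entry into stationary phase, OD595 was recorded and divided by the robust mean of the no-drug wells on that plate, with any value above 1 set to 1. This gives the fitness measure used throughout. Single-drug fitness was inferred from combination data, and the Bliss score, observed minus product-expected fitness, is shown as quartiles across technical, biological and donor/recipient replicates.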

S. pneumoniae D39V [6] = experiment: as above
In short: as §2

S. aureus DSM 20231 [7] = experiment: as above
In short: as §2

S. aureus Newman [8] = experiment: as above
In short: as §2
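For Bliss interaction score (quartile over a dose matrix) in this document: first quartile when negative (synergy) and third quartile when positive (antagonism).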

Cc1onc(-c2ccccc2)c1C(=O)N[C@@H]1C(=O)N2[C@@H]1SC(C)(C)[C@@H]2C(=O)O [Oxacillin] + CN1C2=CC=CC=C2N=C3C1=CC=CC3=O [Pyocyanin]
Conditions | fitness
B. subtilis 168 [1], first compound 0.002 µg/mL, partner 1.25 µg/mL | 0.93
B. subtilis 168 [1], first compound 0.002 µg/mL, partner 2.5 µg/mL | 0.891
B. subtilis 168 [1], first compound 0.002 µg/mL, partner 5 µg/mL | 0.768
B. subtilis 168 [1], first compound 0.004 µg/mL, partner 1.25 µg/mL | 0.918
B. subtilis 168 [1], first compound 0.004 µg/mL, partner 2.5 µg/mL | 0.839
B. subtilis 168 [1], first compound 0.004 µg/mL, partner 5 µg/mL | 0.703
B. subtilis 168 [1], first compound 0.008 µg/mL, partner 1.25 µg/mL | 0.847
B. subtilis 168 [1], first compound 0.008 µg/mL, partner 2.5 µg/mL | 0.79
B. subtilis 168 [1], first compound 0.008 µg/mL, partner 5 µg/mL | 0.675
S. aureus DSM 20231 [3], first compound 0.0156 µg/mL, partner 1.25 µg/mL | 0.761
S. aureus DSM 20231 [3], first compound 0.0156 µg/mL, partner 2.5 µg/mL | 0.766
S. aureus DSM 20231 [3], first compound 0.0156 µg/mL, partner 5 µg/mL | 0.493
S. aureus DSM 20231 [3], first compound 0.0312 µg/mL, partner 1.25 µg/mL | 0.643
S. aureus DSM 20231 [3], first compound 0.0312 µg/mL, partner 2.5 µg/mL | 0.635
S. aureus DSM 20231 [3], first compound 0.0312 µg/mL, partner 5 µg/mL | 0.468
S. aureus DSM 20231 [3], first compound 0.0625 µg/mL, partner 1.25 µg/mL | 0.48
S. aureus DSM 20231 [3], first compound 0.0625 µg/mL, partner 2.5 µg/mL | 0.482
S. aureus DSM 20231 [3], first compound 0.0625 µg/mL, partner 5 µg/mL | 0.362
S. aureus Newman [4], first compound 0.0156 µg/mL, partner 1.25 µg/mL | 0.744
S. aureus Newman [4], first compound 0.0156 µg/mL, partner 2.5 µg/mL | 0.683
S. aureus Newman [4], first compound 0.0156 µg/mL, partner 5 µg/mL | 0.424
S. aureus Newman [4], first compound 0.0312 µg/mL, partner 1.25 µg/mL | 0.625
S. aureus Newman [4], first compound 0.0312 µg/mL, partner 2.5 µg/mL | 0.596
S. aureus Newman [4], first compound 0.0312 µg/mL, partner 5 µg/mL | 0.336
S. aureus Newman [4], first compound 0.0625 µg/mL, partner 5 µg/mL | 0.305
S. pneumoniae D39V [2], first compound 0.01 µg/mL, partner 0.325 µg/mL | ≥ 1
S. pneumoniae D39V [2], first compound 0.01 µg/mL, partner 0.65 µg/mL | ≥ 1
S. pneumoniae D39V [2], first compound 0.01 µg/mL, partner 1.3 µg/mL | 0.684
S. pneumoniae D39V [2], first compound 0.02 µg/mL, partner 0.325 µg/mL | 0.988
S. pneumoniae D39V [2], first compound 0.02 µg/mL, partner 0.65 µg/mL | 0.979
S. pneumoniae D39V [2], first compound 0.02 µg/mL, partner 1.3 µg/mL | 0.672
S. pneumoniae D39V [2], first compound 0.04 µg/mL, partner 0.325 µg/mL | 0.722
S. pneumoniae D39V [2], first compound 0.04 µg/mL, partner 0.65 µg/mL | 0.781
S. pneumoniae D39V [2], first compound 0.04 µg/mL, partner 1.3 µg/mL | 0.547

fitness, B. subtilis 168 [1], one replicate
Conditions | first compound 0.075 µg/mL | first compound 0.15 µg/mL | first compound 0.3 µg/mL
partner 1.25 µg/mL | 0.463 | 0.0474 | 0.0657
partner 2.5 µg/mL | 0.404 | 0.0413 | 0.0539
partner 5 µg/mL | 0.145 | 0.0518 | 0.0652

Conditions | Bliss interaction score
B. subtilis 168 [5] | -0.0582
S. aureus DSM 20231 [7] | -0.0528
S. aureus Newman [8] | -0.0412
S. pneumoniae D39V [6] | 0.188

Cc1cc(NS(=O)(=O)c2ccc(N)cc2)no1 [Sulfamethoxazol] + CC1=C\[C@@H](O)CC(=O)Cc2nc(co2)C(=O)N2CCC=C2C(=O)O[C@H](C(C)C)[C@H](C)/C=C/C(=O)NC\C=C\1 [Virginiamycin M1]
one replicate
Conditions | fitness
B. subtilis 168 [1], first compound 0.5 µg/mL, partner 0.0625 µg/mL | 0.982
B. subtilis 168 [1], first compound 0.5 µg/mL, partner 0.125 µg/mL | 0.928
B. subtilis 168 [1], first compound 0.5 µg/mL, partner 0.25 µg/mL | ≥ 1
S. aureus DSM 20231 [3], first compound 1 µg/mL, partner 0.5 µg/mL | 0.88
S. aureus DSM 20231 [3], first compound 1 µg/mL, partner 1 µg/mL | 0.709
S. aureus DSM 20231 [3], first compound 2 µg/mL, partner 0.5 µg/mL | 0.915
S. aureus DSM 20231 [3], first compound 2 µg/mL, partner 1 µg/mL | 0.679
S. aureus DSM 20231 [3], first compound 4 µg/mL, partner 0.5 µg/mL | 0.797
S. aureus DSM 20231 [3], first compound 4 µg/mL, partner 1 µg/mL | 0.8
S. aureus Newman [4], first compound 1 µg/mL, partner 0.5 µg/mL | 0.873
S. aureus Newman [4], first compound 1 µg/mL, partner 1 µg/mL | 0.869
S. aureus Newman [4], first compound 1 µg/mL, partner 2 µg/mL | 0.841
S. aureus Newman [4], first compound 2 µg/mL, partner 0.5 µg/mL | 0.911
S. aureus Newman [4], first compound 2 µg/mL, partner 1 µg/mL | 0.925
S. aureus Newman [4], first compound 2 µg/mL, partner 2 µg/mL | 0.809
S. aureus Newman [4], first compound 4 µg/mL, partner 0.5 µg/mL | 0.956
S. aureus Newman [4], first compound 4 µg/mL, partner 1 µg/mL | 0.908
S. aureus Newman [4], first compound 4 µg/mL, partner 2 µg/mL | 0.839
S. aureus Newman [4], first compound 8 µg/mL, partner 0.0625 µg/mL | 0.905
S. aureus Newman [4], first compound 8 µg/mL, partner 0.125 µg/mL | 0.921
S. aureus Newman [4], first compound 8 µg/mL, partner 0.25 µg/mL | 0.945
S. pneumoniae D39V [2], first compound 1 µg/mL, partner 0.15 µg/mL | 0.905
S. pneumoniae D39V [2], first compound 1 µg/mL, partner 0.3 µg/mL | 0.895
S. pneumoniae D39V [2], first compound 2 µg/mL, partner 0.15 µg/mL | 0.923
S. pneumoniae D39V [2], first compound 2 µg/mL, partner 0.3 µg/mL | 0.902
S. pneumoniae D39V [2], first compound 4 µg/mL, partner 0.15 µg/mL | 0.92
S. pneumoniae D39V [2], first compound 4 µg/mL, partner 0.3 µg/mL | 0.913

fitness
Conditions | first compound 1 µg/mL | first compound 2 µg/mL | first compound 4 µg/mL
B. subtilis 168 [1], partner 0.0625 µg/mL | 0.887 | 0.905 | 0.901
B. subtilis 168 [1], partner 0.125 µg/mL | 0.878 | 0.876 | 0.901
B. subtilis 168 [1], partner 0.25 µg/mL | 0.983 | 0.919 | 0.993
S. aureus DSM 20231 [3], partner 0.0625 µg/mL | ≥ 1 | ≥ 1 | 0.964
S. aureus DSM 20231 [3], partner 0.125 µg/mL | ≥ 1 | 0.995 | 0.955
S. aureus DSM 20231 [3], partner 0.25 µg/mL | 0.944 | 0.971 | 0.95
S. aureus Newman [4], partner 0.0625 µg/mL | ≥ 1 | ≥ 1 | ≥ 1
S. aureus Newman [4], partner 0.125 µg/mL | ≥ 1 | ≥ 1 | ≥ 1
S. aureus Newman [4], partner 0.25 µg/mL | ≥ 1 | ≥ 1 | ≥ 1
S. pneumoniae D39V [2], partner 0.5 µg/mL | 0.992 | 0.99 | 0.928
S. pneumoniae D39V [2], partner 1 µg/mL | 0.988 | 0.986 | 0.917
S. pneumoniae D39V [2], partner 2 µg/mL | 0.906 | 0.93 | 0.925

Conditions | Bliss interaction score
B. subtilis 168 [5] | 0.0577
S. aureus DSM 20231 [7] | 0.0829
S. aureus Newman [8] | 0.0283
S. pneumoniae D39V [6] | -0.05

Cn1c2cccc(=O)c-2nc2ccccc21 [Pyocyanin] + CC1=C\[C@@H](O)CC(=O)Cc2nc(co2)C(=O)N2CCC=C2C(=O)O[C@H](C(C)C)[C@H](C)/C=C/C(=O)NC\C=C\1 [Virginiamycin M1]
fitness
Conditions | B. subtilis 168 [1] | S. aureus DSM 20231 [3] | S. aureus Newman [4] | S. pneumoniae D39V [2]
first compound 0.325 µg/mL, partner 0.5 µg/mL | – | – | – | ≥ 1
first compound 0.325 µg/mL, partner 1 µg/mL | – | – | – | ≥ 1
first compound 0.325 µg/mL, partner 2 µg/mL | – | – | – | 0.969
first compound 0.65 µg/mL, partner 0.5 µg/mL | – | – | – | ≥ 1
first compound 0.65 µg/mL, partner 1 µg/mL | – | – | – | ≥ 1
first compound 0.65 µg/mL, partner 2 µg/mL | – | – | – | 0.992
first compound 1.25 µg/mL, partner 0.0625 µg/mL | 0.924 | 0.883 | 0.823 | –
first compound 1.25 µg/mL, partner 0.125 µg/mL | 0.89 | 0.923 | 0.833 | –
first compound 1.25 µg/mL, partner 0.25 µg/mL | 0.885 | 0.808 | 0.823 | –
first compound 1.3 µg/mL, partner 2 µg/mL | – | – | – | 0.828
first compound 2.5 µg/mL, partner 0.0625 µg/mL | 0.862 | 0.854 | 0.752 | –
first compound 2.5 µg/mL, partner 0.125 µg/mL | 0.84 | 0.86 | 0.766 | –
first compound 2.5 µg/mL, partner 0.25 µg/mL | 0.857 | 0.89 | 0.776 | –
first compound 5 µg/mL, partner 0.0625 µg/mL | 0.734 | 0.562 | 0.369 | –
first compound 5 µg/mL, partner 0.125 µg/mL | 0.741 | 0.589 | 0.422 | –
first compound 5 µg/mL, partner 0.25 µg/mL | 0.758 | 0.621 | 0.352 | –

fitness, one replicate
Conditions | partner 0.15 µg/mL | partner 0.3 µg/mL | partner 0.5 µg/mL | partner 1 µg/mL | partner 2 µg/mL
S. aureus DSM 20231 [3], first compound 1.25 µg/mL | – | – | 0.913 | 0.882 | –
S. aureus DSM 20231 [3], first compound 2.5 µg/mL | – | – | 0.816 | 0.787 | –
S. aureus DSM 20231 [3], first compound 5 µg/mL | – | – | 0.556 | 0.616 | –
S. aureus Newman [4], first compound 1.25 µg/mL | – | – | 0.921 | ≥ 1 | 0.92
S. aureus Newman [4], first compound 2.5 µg/mL | – | – | 0.939 | 0.965 | 0.952
S. aureus Newman [4], first compound 5 µg/mL | – | – | 0.844 | 0.885 | 0.734
S. pneumoniae D39V [2], first compound 0.325 µg/mL | ≥ 1 | 0.988 | – | – | –
S. pneumoniae D39V [2], first compound 0.65 µg/mL | ≥ 1 | 0.994 | – | – | –
S. pneumoniae D39V [2], first compound 1.3 µg/mL | 0.935 | 0.859 | 0.878 | 0.815 | –

Conditions | Bliss interaction score
B. subtilis 168 [5] | -0.0635
S. aureus DSM 20231 [7] | -0.0636
S. aureus Newman [8] | 0.0515
S. pneumoniae D39V [6] | 0.0505
